Patent US20240317727A1 (Duke University, priority 2018, published 2024)

What was measured:
SNB-75 = assay: NCI60 cell growth and viability: SNB-75; format: cell-based; settings: SNB-75, CNS Cancer, two days
MDA-MB-468 = assay: NCI60 cell growth and viability: MDA-MB-468
SR = assay: NCI60 cell growth and viability: SR; format: cell-based; settings: Leukemia, two days
OVCAR-8 = assay: NCI60 cell growth and viability: OVCAR-8; format: cell-based; settings: OVCAR-8, Ovarian Cancer, two days
HOP-92 = assay: NCI60 cell growth and viability: HOP-92; format: cell-based; settings: HOP-92, Non-Small Cell Lung Cancer, two days
SW-620 = assay: NCI60 cell growth and viability: SW-620; format: cell-based; settings: SW-620, Colon Cancer, two days
COLO 205 = assay: NCI60 cell growth and viability: COLO 205; format: cell-based; settings: COLO 205, Colon Cancer, two days
HCT-15 = assay: NCI60 cell growth and viability: HCT-15; format: cell-based; settings: HCT-15, Colon Cancer, two days
UACC-62 = assay: NCI60 cell growth and viability: UACC-62; format: cell-based; settings: UACC-62, Melanoma, two days
HS 578T = assay: NCI60 cell growth and viability: HS 578T; format: cell-based; settings: Breast Cancer, two days
NCI/ADR-RES = assay: NCI60 cell growth and viability: NCI/ADR-RES; format: cell-based; settings: Ovarian Cancer, two days
M14 = assay: NCI60 cell growth and viability: M14; format: cell-based; settings: M14, Melanoma, two days
[1] = system: HSF1 regulated transcripts; assay: HSF1 regulated transcripts in C4-2 cells; format: cell-based, human; settings: FIG. 4C
[2] = target: T1, recombinant HSF1 DNA-binding domain (DBD) (Homo sapiens, UniProt Q00613); assay: Differential Scanning Fluorimetry (DSF), HSF1 DBD melting temperature
T1 sequence (Q00613 15-120): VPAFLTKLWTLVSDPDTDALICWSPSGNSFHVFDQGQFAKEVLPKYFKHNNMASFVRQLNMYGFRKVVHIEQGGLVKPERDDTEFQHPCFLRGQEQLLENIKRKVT

SK-OV-3 = assay: NCI60 cell growth and viability: SK-OV-3; format: cell-based; settings: SK-OV-3, Ovarian Cancer, two days
NCI-H522 = format: cell-based; settings: NCI-H522, Non-Small Cell Lung Cancer, two days
HL-60(TB) = assay: cells; format: cell-based; settings: Leukemia, two days
HCC-2998 = assay: NCI60 cell growth and viability: HCC-2998; format: cell-based; settings: HCC-2998, Colon Cancer, two days
HT29 = assay: NCI60 cell growth and viability: HT29; format: cell-based; settings: HT29, Colon Cancer, two days
OVCAR-4 = assay: NCI60 cell growth and viability: OVCAR-4; format: cell-based; settings: OVCAR-4, Ovarian Cancer, two days
OVCAR-3 = assay: NCI60 cell growth and viability: OVCAR-3
A549/ATCC = assay: NCI60 cell growth and viability: A549/ATCC; format: cell-based; settings: Non-Small Cell Lung Cancer, two days
LOX IMVI = assay: NCI60 cell growth and viability: LOX IMVI; format: cell-based; settings: Melanoma, two days
[3] = Homo sapiens, 48 h, read-out: log10 [GI50 (M)] (converted)
[4] = Homo sapiens, 48 h, read-out: log10 [LC50 (M)] (converted)

## O=C(Nc1ccc(F)cc1)Nc1ccc(Cl)c([N+](=O)[O-])c1 [Compound 0017, 1-(4-chloro-3-nitrophenyl)-3-(4-fluorophenyl)urea]
SNB-75; [3]
  GI50: 5.89e-06 M
SNB-75; [4]
  CC50: ≥ 0.0001 M
SNB-75
  log10 [TGI (M)]: −4.00 log10 M
MDA-MB-468; Homo sapiens, MDA-MB-468, 48 h, read-out: log10 [GI50 (M)] (converted)
  GI50: 2.14e-06 M
MDA-MB-468; Homo sapiens, MDA-MB-468, 48 h, read-out: log10 [LC50 (M)] (converted)
  CC50: 3.55e-05 M
MDA-MB-468; MDA-MB-468, Breast Cancer, two days
  log10 [TGI (M)]: −5.12 log10 M
SR; [3]
  GI50: 3.39e-06 M
SR; [4]
  CC50: ≥ 0.0001 M
SR
  log10 [TGI (M)]: −4.00 log10 M
OVCAR-8; [3]
  GI50: 2.95e-06 M
OVCAR-8; [4]
  CC50: ≥ 0.0001 M
OVCAR-8
  log10 [TGI (M)]: −4.82 log10 M
HOP-92
  log10 [TGI (M)]: −5.21 log10 M
HOP-92; [3]
  GI50: 2.04e-06 M
HOP-92; [4]
  CC50: 2.69e-05 M
SW-620; [3]
  GI50: 3.47e-06 M
SW-620; [4]
  CC50: 4.79e-05 M
SW-620
  log10 [TGI (M)]: −4.86 log10 M
COLO 205
  log10 [TGI (M)]: −5.20 log10 M
COLO 205; [3]
  GI50: 2.45e-06 M
COLO 205; [4]
  CC50: 3.47e-05 M
HCT-15
  log10 [TGI (M)]: −4.92 log10 M
HCT-15; [3]
  GI50: 2.95e-06 M
HCT-15; [4]
  CC50: 3.72e-05 M
UACC-62; [3]
  GI50: 3.02e-06 M
UACC-62; [4]
  CC50: 3.63e-05 M
UACC-62
  log10 [TGI (M)]: −4.88 log10 M
HS 578T
  log10 [TGI (M)]: −4.62 log10 M
HS 578T; [3]
  GI50: 3.98e-06 M
HS 578T; [4]
  CC50: ≥ 0.0001 M
NCI/ADR-RES; [3]
  GI50: 2.57e-06 M
NCI/ADR-RES; [4]
  CC50: ≥ 0.0001 M
NCI/ADR-RES
  log10 [TGI (M)]: −4.99 log10 M
M14; [3]
  GI50: 3.16e-06 M
M14; [4]
  CC50: 3.8e-05 M
M14
  log10 [TGI (M)]: −4.91 log10 M
[1]
  HSF1 negatively regulated transcripts: de-repressed
  expression of HSF1 positively regulated transcripts: dose-dependently repressed
[2]; Table 1, 5 μM HSF1 DBD, 25PM Compound, positive = stabilizes, negative = destabilizes HSF1
  ΔTm at 25 µM: 3 °C
[2]; thermal denaturation assay
  binding to HSF1: binds HSF1
SK-OV-3; [3]
  GI50: 2.63e-06 M
SK-OV-3; [4]
  CC50: 4.27e-05 M
SK-OV-3
  log10 [TGI (M)]: −5.12 log10 M
NCI-H522; [3]
  GI50: 2.45e-06 M
NCI-H522; [4]
  CC50: 4.68e-05 M
NCI-H522
  log10 [TGI (M)]: −4.97 log10 M
HL-60(TB); [3]
  GI50: 2.51e-06 M
HL-60(TB); [4]
  CC50: ≥ 0.0001 M
HL-60(TB)
  log10 [TGI (M)]: −5.07 log10 M
HCC-2998
  log10 [TGI (M)]: −4.84 log10 M
HCC-2998; [3]
  GI50: 3.72e-06 M
HCC-2998; [4]
  CC50: 4.27e-05 M
HT29
  log10 [TGI (M)]: −4.91 log10 M
HT29; Homo sapiens, HT-29, 48 h, read-out: log10 [GI50 (M)] (converted)
  GI50: 3.24e-06 M
HT29; Homo sapiens, HT-29, 48 h, read-out: log10 [LC50 (M)] (converted)
  CC50: 5.37e-05 M
OVCAR-4; [3]
  GI50: 2.75e-06 M
OVCAR-4; [4]
  CC50: 8.71e-05 M
OVCAR-4
  log10 [TGI (M)]: −4.85 log10 M
OVCAR-3; Homo sapiens, OVCAR-3, 48 h, read-out: log10 [GI50 (M)] (converted)
  GI50: 3.8e-06 M
OVCAR-3; Homo sapiens, OVCAR-3, 48 h, read-out: log10 [LC50 (M)] (converted)
  CC50: 9.55e-05 M
OVCAR-3; OVCAR-3, Ovarian Cancer, two days
  log10 [TGI (M)]: −4.72 log10 M
A549/ATCC; [3]
  GI50: 3.09e-06 M
A549/ATCC; [4]
  CC50: ≥ 0.0001 M
A549/ATCC
  log10 [TGI (M)]: −4.79 log10 M
LOX IMVI; [3]
  GI50: 3.55e-06 M
LOX IMVI; [4]
  CC50: 4.07e-05 M
LOX IMVI
  log10 [TGI (M)]: −4.91 log10 M
